According to US10889564B2, “Tetrahydroindazoles and medical uses thereof” (Genase Therapeutics B.V., priority 2015, dated 2021):

Assays:
Format in all cases: cell-based
[1] = system: K562 mtTP53, leukemia; test: WST-1 assay; settings: 72 hours
Experimental: (§1) Adherent cell lines were cultured overnight prior to the addition of the compound of Example 1, whereas non-adherent cell lines were treated immediately after seeding. TP53 status in each cell line is indicated. All cells were grown in 10% FBS. p53 wild type or mutant status (wtTP53 or mtTP53) and tumor cell line origin are indicated. The results obtained are shown below and in FIG. 10.

[2] = system: L428 mtTP53, lymphoma; test: WST-1 assay; settings: 72 hours
Experimental: as §1

[3] = system: U2OS wtTP53, sarcoma; test: WST-1 assay; settings: 72 hours
Experimental: as §1

[4] = system: NB4 mtTP53, leukemia; test: WST-1 assay; settings: 72 hours
Experimental: as §1

[5] = system: HT29 mtTP53, colon cancer; test: WST-1 assay; settings: 72 hours
Experimental: as §1

[6] = system: A375 wtTP53, melanoma; test: WST-1 assay; settings: 72 hours
Experimental: as §1

[7] = system: HCT116 wtTP53, colon cancer; test: WST-1 assay; settings: 72 hours
Experimental: as §1

[8] = system: RKO wtTP53, colon cancer; test: WST-1 assay; settings: 72 hours
Experimental: as §1

[9] = system: MV4-11 wtTP53, leukemia; test: WST-1 assay; settings: 72 hours
Experimental: as §1

[10] = system: Ramos mtTP53, lymphoma; test: WST-1 assay; settings: 72 hours
Experimental: as §1

[11] = system: JVM2 wtTP53, lymphoma; test: WST-1 assay; settings: 72 hours
Experimental: as §1

[12] = system: A431 mtTP53, skin cancer; test: WST-1 assay; settings: 72 hours
Experimental: as §1

[13] = system: p21 expression in ARN8 melanoma cells; test: Levels of p53 and downstream targets (hdm2, pig3, p21) with nutlin-3; settings: 1 h then 2 μM nutlin-3 for 18 h, FIG. 4
Experimental: Levels of p53 and downstream targets hdm2, pig3 (band indicated by arrow) and p21 were determined. Levels of gapdh were used to monitor protein loading. Pig3 is a known pro-apoptotic protein.

[14] = system: p53 synthesis in ARN8 melanoma cells; test: p53 synthesis, 35S-Met pulse labelling and p53 immunoprecipitation; settings: 5 h treatment, 35S-Met 30 minutes, FIG. 3
Experimental: Incorporation of 35S-Met in the p53 immunoprecipitate was determined by autoradiography. This experiment was performed in duplicate (Exp. 1 and Exp. 2).

[15] = system: ARN8 melanoma cells; test: Sulforhodamine B assay of cancer cell growth and/or viability; settings: ARN8; 2 μM; 72 hours; absence of excess uridine
Experimental: ARN8 melanoma cells are seeded at a density of 500 cells per well of a 96 well plate. Following 24 hours of incubation, cells are treated with increasing concentrations of the compound of Example 8 in the absence or presence of excess uridine (100 micromolar). Cells are incubated for 72 hours after which the growth medium is removed from the cells and replaced by […] of 1× sterile PBS and 50 μL of 40% trichloroacetic acid in dH2O. Samples are incubated at 4° C. for 1 h to fix the cells. The plate is then washed with 3 changes of water with all liquid allowed to drain from the plate. […] of 0.1% sulforhodamine B in 1% acetic acid in H2O is added to each well and incubated for 30 minutes. Excess dye is washed out with three changes of 1% acetic acid in H2O with all liquid allowed to drain from the plate. The remaining dye is solubilized in 100 microliters of 10 mM un-buffered basic Tris per well and absorbance read at 570 nm.

[16] = system: ARN8s wtTP53, melanoma; test: WST-1 assay; settings: 72 hours
Experimental: TP53 status in each cell line is indicated. All cells were grown in 10% FBS. p53 wild type or mutant status (wtTP53 or mtTP53) and tumor cell line origin are indicated.

[17] = system: uridine uptake in ARN8 cells; test: Tritiated uridine uptake; settings: 15 min preincubation, 5,6-3H-Uridine 60 sec, FIG. 7
Experimental: ARN8 cells were incubated with increasing concentrations of nilotinib and tritiated uridine. The amount of tritium label in cells was determined by scintillation counting. 200 000 ARN8 cells/well were seeded on 6-well plates. 24 h post-seeding, the cells were rinsed twice with transport buffer, pH 7.4 (20 mM Tris/HCl, 130 mM NaCl, 3 mM K2HPO4, 1 mM MgCl2, 5 mM Glucose) and then incubated for 15 min at 37° C. with compounds (or vehicle) diluted in transport buffer. 5,6-3H-Uridine (PerkinElmer, #NET367001MC) was added to a final concentration of 4 μCi/mL for 60 sec, and then removed with 5 quick washes with 1 mM ice-cold unlabelled uridine (Sigma, #U3003). Samples (in triplicate) were harvested in 10% SDS (Sigma) and transferred to a flexible 24-well microplate (Perkin Elmer, #1450-402). Optiphase Supermix scintillation buffer (PerkinElmer, #1200-439) was added and the counts per minute measured for 3 min.

O=C(NC1CCCc2c1cnn2-c1ccccc1F)c1ccccn1 (stereo not shown) [Example 1, N-(1-(2-Fluorophenyl)-4,5,6,7-tetrahydro-1H-indazol-4-yl)picolinamide]
metabolically active cells, percentage relative to the vehicle (DMSO) control ([1]; 1.23 μM): 63.91% | metabolically active cells, percentage relative to the vehicle (DMSO) control ([1]; 3.70 μM): 57.69% | metabolically active cells, percentage relative to the vehicle (DMSO) control ([1]; 11.11 μM): 55.28% | metabolically active cells, percentage relative to the vehicle (DMSO) control ([1]; 33.30 μM): 53.35% | metabolically active cells, percentage relative to the vehicle (DMSO) control ([2]; 1.23 μM): 67.78% | metabolically active cells, percentage relative to the vehicle (DMSO) control ([2]; 3.70 μM): 33.84% | metabolically active cells, percentage relative to the vehicle (DMSO) control ([2]; 11.11 μM): 32.76% | metabolically active cells, percentage relative to the vehicle (DMSO) control ([2]; 33.30 μM): 34.80% | metabolically active cells, percentage relative to the vehicle (DMSO) control ([3]; 1.23 μM): 98.88% | metabolically active cells, percentage relative to the vehicle (DMSO) control ([3]; 3.70 μM): 70.03% | metabolically active cells, percentage relative to the vehicle (DMSO) control ([3]; 11.11 μM): 51.63% | metabolically active cells, percentage relative to the vehicle (DMSO) control ([3]; 33.30 μM): 50.16% | metabolically active cells, percentage relative to the vehicle (DMSO) control ([4]; 1.23 μM): 79.47% | metabolically active cells, percentage relative to the vehicle (DMSO) control ([4]; 3.70 μM): 65.73% | metabolically active cells, percentage relative to the vehicle (DMSO) control ([4]; 11.11 μM): 42.77% | metabolically active cells, percentage relative to the vehicle (DMSO) control ([4]; 33.30 μM): 36.19% | metabolically active cells, percentage relative to the vehicle (DMSO) control ([5]; 1.23 μM): 70.23% | metabolically active cells, percentage relative to the vehicle (DMSO) control ([5]; 3.70 μM): 23.19% | metabolically active cells, percentage relative to the vehicle (DMSO) control ([5]; 11.11 μM): 25.66% | metabolically active cells, percentage relative to the vehicle (DMSO) control ([5]; 33.30 μM): 12.11% | metabolically active cells, percentage relative to the vehicle (DMSO) control ([6]; 1.23 μM): 85.95% | metabolically active cells, percentage relative to the vehicle (DMSO) control ([6]; 3.70 μM): 50.62% | metabolically active cells, percentage relative to the vehicle (DMSO) control ([6]; 11.11 μM): 45.86% | metabolically active cells, percentage relative to the vehicle (DMSO) control ([6]; 33.30 μM): 32.67% | metabolically active cells, percentage relative to the vehicle (DMSO) control ([7]; 1.23 μM): 75.69% | metabolically active cells, percentage relative to the vehicle (DMSO) control ([7]; 3.70 μM): 50.13% | metabolically active cells, percentage relative to the vehicle (DMSO) control ([7]; 11.11 μM): 28.40% | metabolically active cells, percentage relative to the vehicle (DMSO) control ([7]; 33.30 μM): 14.51% | metabolically active cells, percentage relative to the vehicle (DMSO) control ([8]; 1.23 μM): 83.37% | metabolically active cells, percentage relative to the vehicle (DMSO) control ([8]; 3.70 μM): 42.62% | metabolically active cells, percentage relative to the vehicle (DMSO) control ([8]; 11.11 μM): 36.36% | metabolically active cells, percentage relative to the vehicle (DMSO) control ([8]; 33.30 μM): 29.16% | metabolically active cells, percentage relative to the vehicle (DMSO) control ([9]; 1.23 μM): 60.26% | metabolically active cells, percentage relative to the vehicle (DMSO) control ([9]; 3.70 μM): 36.85% | metabolically active cells, percentage relative to the vehicle (DMSO) control ([9]; 11.11 μM): 19.73% | metabolically active cells, percentage relative to the vehicle (DMSO) control ([9]; 33.30 μM): 15.79% | metabolically active cells, percentage relative to the vehicle (DMSO) control ([10]; 1.23 μM): 87.94% | metabolically active cells, percentage relative to the vehicle (DMSO) control ([10]; 3.70 μM): 54.16% | metabolically active cells, percentage relative to the vehicle (DMSO) control ([10]; 11.11 μM): 42.35% | metabolically active cells, percentage relative to the vehicle (DMSO) control ([10]; 33.30 μM): 40.94% | metabolically active cells, percentage relative to the vehicle (DMSO) control ([11]; 1.23 μM): 86.30% | metabolically active cells, percentage relative to the vehicle (DMSO) control ([11]; 3.70 μM): 75.36% | metabolically active cells, percentage relative to the vehicle (DMSO) control ([11]; 11.11 μM): 44.68% | metabolically active cells, percentage relative to the vehicle (DMSO) control ([11]; 33.30 μM): 38.31% | metabolically active cells, percentage relative to the vehicle (DMSO) control ([12]; 1.23 μM): 76.99% | metabolically active cells, percentage relative to the vehicle (DMSO) control ([12]; 3.70 μM): 52.31% | metabolically active cells, percentage relative to the vehicle (DMSO) control ([12]; 11.11 μM): 36.84% | metabolically active cells, percentage relative to the vehicle (DMSO) control ([12]; 33.30 μM): 27.93% | nutlin-3 induced p21 expression [13]: Loss of nutlin-3 induced p21 expression | p53 synthesis [14]: increases p53 synthesis | viability at 2 µM [15]: 53% | metabolically active cells, percentage relative to the vehicle (DMSO) control ([16]; 1.23 μM): 68.69% | metabolically active cells, percentage relative to the vehicle (DMSO) control ([16]; 3.70 μM): 40.86% | metabolically active cells, percentage relative to the vehicle (DMSO) control ([16]; 11.11 μM): 35.13%

Cc1cn(-c2cc(NC(=O)c3ccc(C)c(Nc4nccc(-c5cccnc5)n4)c3)cc(C(F)(F)F)c2)cn1 [nilotinib]
uridine uptake [17]: blocks uridine uptake
